The text below walks through data of US11384073B2, “Maleate salt of benzothiophene compound, crystalline form thereof, and use thereof” (SHANGHAI INSTITUTE OF MATERIA MEDICA, CHINESE ACADEMY OF …, priority 2018, dated 2022).

Data set [1] is described as follows: Comparison of solubility of the compounds. The format is physicochemical. The procedure:
An appropriate amount of a sample was weighted in a glass tube, the selected solvent was added thereto in a gradient and the resultant was observed until it became clear.

The test system of a further data set is Wistar rats. As to the kind of experiment: Acute toxicity experiments in rats. The format is in vivo. The method, then:
Wistar rats were randomly divided into 3 groups with 10 rats in each group. The animals were fasted for 12 hours before the administration, and the muscle relaxation state of the animals was observed 1 hour after the administration. The animal's two forepaws were gripped on a 40 cm-high hemp rope for testing for three times. The case in which the animal could put the hind paws on the rope within 15 s for two or more times was regarded as no muscle relaxation. Otherwise, it was regarded as muscle relaxation. After each animal's muscle relaxation test, a catalepsy experiment was performed, and the “grip rod” experiment method was used to determine the rat's rigidity duration. The rat's two forepaws were gently put on a small rod to test the duration time that the rats maintained their two forepaws on the rod in a 45-degree posture. […] If the rat's forepaw had not been put down, the observation was terminated at 180 s.

The nature of data set [2]: Comparison of stability (Factors influencing test).
The nature of data set [3]: Comparison of hygroscopicity. The format is physicochemical. Particulars: relative humidity 92.5%, 96 hours; for Moisture gain: room temperature. The method, then: The basic compound of compound Z (Example 1) and the different salts of compound Z (Examples 2, 4-6, 9) were studied for their hygroscopicity. A certain amount of the test sample was placed in a precisely weighed glass weighing bottle with a stopper, and weighed accurately. The weighing bottle was openly placed in a desiccator (a saturated potassium nitrate solution was placed in the lower part, with a relative humidity of 92.5%), and kept at room temperature for 96 hours, and then the weighing bottle was covered with the stopper and weighed accurately. The moisture gain was calculated.

Data set [4] can be described thus: Comparison of appearance and compositions of the compounds. The format is physicochemical. The text has this:
The basic compound of compound Z (Example 1) was compared with the different salts of compound Z (Examples 2, 6-12) for their appearance, compositions, crystalline forms, etc., and the results are shown in the following table: […]

The mark [5] stands for this setting: High temperature (60° C.), Day 2.
Where [6] appears, read: Illumination (4500 lx ± 500 lx), Day 2.

Usually Solubility stands for the concentration that dissolves in the medium under given conditions.

Values after ≈ are worked out from the molar mass of the structure shown. Where two headings read alike, the source gives them in different places.

Regarding `O=c1ccc2ccc(CCN3CCN(c4cccc5sccc45)CC3)cc2[nH]1` [Compound Z, 7-(2-(4-(benzo[b]thiophen-4-yl)piperazin-1-yl)ethyl)quinoline-2(1H)-one], the “Solubility in deionized water (comparison in words)” value in data set [1] (Deionized water) is listed as “significantly lower than those of the salts of compound Z”. Besides, the Solubility was found to be 6.8 µg/mL (≈ 17.5 µM) in data set [1] (buffer pH 2, aqueous buffer, thermodynamic from solid, buffer with pH = 2, read-out: Solubility) and 0.7 µg/mL (≈ 1.8 µM) in data set [1] (buffer pH 4.5, aqueous buffer, thermodynamic from solid, buffer with pH = 4.5, read-out: Solubility). Moreover, the “Acute toxicity, recovery and animal deaths (comparison in words)” value in the data set on Wistar rats (dose of 200 mg/kg) was “the highest toxicity, the slowest recovery, and the most animal deaths”. Moreover, the Purity was 98.07% in data set [2] (Day 0), 98.03% in data set [2] (setting [5]) and 98.01% in data set [2] (setting [6]). The “Stability (in words)” value in data set [2] (under high temperature and illumination conditions) is on record as “high stability”. Besides, in data set [3], the Moisture gain was −0.16%. Moreover, the Composition result in data set [4] is reported as “constant”. Besides, the Crystal water result in data set [4] is listed as “No”. Further, the Static electricity entry in data set [4] is “No”.

The compound `O=C(O)/C=C/C(=O)O.O=c1ccc2ccc(CCN3CCN(c4cccc5sccc45)CC3)cc2[nH]1` [Fumarate of compound Z, Fumarate of 7-(2-(4-(benzo[b]thiophen-4-yl)piperazin-1-yl)ethyl)quinoline-2(1H)-one] displayed a Solubility in data set [1] (Deionized water) of 117.6 µg/mL. This compound came in with a Solubility in data set [1] (buffer with pH = 2) of 2.0 µg/mL. In data set [1] (buffer with pH = 4.5), this compound had a Solubility of 1.8 µg/mL. In addition, in data set [4], the Composition entry was “constant”, the Crystal water entry is on record as “No” and the Static electricity result is recorded as “No”.

As for `CS(=O)(=O)O.O=c1ccc2ccc(CCN3CCN(c4cccc5sccc45)CC3)cc2[nH]1` [Methanesulfonate of compound Z, Methanesulfonate of 7-(2-(4-(benzo[b]thiophen-4-yl)piperazin-1-yl)ethyl)quinoline-2(1H)-one], in the data set with Wistar rats (gavage 200 mg/kg, 10 per group, Day 7), the “Animal status after single administration (rigidity/muscle relaxation)” value is given as 5 normal. Moreover, the results for the Purity in data set [2] (Day 0), in data set [2] (setting [5]) and in data set [2] (setting [6]) were 98.60%, 98.47% and 98.54%, respectively. In addition, the “Hygroscopicity (in words)” value in data set [3] is given as “relatively high hygroscopicity”. Besides, in data set [3], the Moisture gain was 1.74%.

With `Cl.O.O=c1ccc2ccc(CCN3CCN(c4cccc5sccc45)CC3)cc2[nH]1` [Monohydrochloride of compound Z, Monohydrochloride Monohydrate of 7-(2-(4-(benzo[b]thiophen-4-yl)piperazin-1-yl)ethyl)quinoline-2(1H)-one], in data set [3], the “Hygroscopicity (in words)” value is recorded as “relatively high hygroscopicity” and the Moisture gain turned out to be 7.01%.

`O=P(O)(O)O.O=c1ccc2ccc(CCN3CCN(c4cccc5sccc45)CC3)cc2[nH]1` [Phosphate of compound Z, Phosphate of 7-(2-(4-(benzo[b]thiophen-4-yl)piperazin-1-yl)ethyl)quinoline-2(1H)-one] displayed a Solubility in data set [1] (Deionized water) of 181.2 µg/mL. The compound also came in with a Solubility in data set [1] (buffer with pH = 2) of 2.8 µg/mL. Further, in data set [1] (buffer with pH = 4.5), the Solubility was 0.1 µg/mL. In data set [4], the Composition entry is “constant”, the Crystal water entry was “No” and the Static electricity result was “No”.

Regarding `O=C(O)CCC(=O)O.O=c1ccc2ccc(CCN3CCN(c4cccc5sccc45)CC3)cc2[nH]1` [Succinate of compound Z, Succinate of 7-(2-(4-(benzo[b]thiophen-4-yl)piperazin-1-yl)ethyl)quinoline-2(1H)-one], the Purity is reported as 98.95% in data set [2] (Day 0), 99.93% in data set [2] (setting [5]) and 99.92% in data set [2] (setting [6]). The Moisture gain in data set [3] is 2.02%.

“Citrate of 7-(2-(4-(benzo[b]thiophen-4-yl)piperazin-1-yl)ethyl)quinoline-2(1H)-one [Citrate of compound Z]”: in data set [3], the “Hygroscopicity (in words)” value is given as “lower hygroscopicity” and the Moisture gain stood at 0.53%. For the same compound, in data set [4], the Composition entry is “constant”, the Crystal water result is “No” and the Static electricity entry is recorded as “No”.
